Measured values from patent publication US6737383B1, “Herbicidal oxadiazolidines” (priority 1999, dated 2004).

Key:
[1] = tested on: bedstraw; test: Test B pre/postemergence bedstraw; format: in vivo, Galium aparine
Summary of the method: (§1)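 Test chemicals in a non-phytotoxic solvent mixture with surfactant were sprayed preemergence onto planted seeds and postemergence onto plants 2 to 18 cm tall (1- to 4-leaf stage). After twelve to sixteen days in a greenhouse, injury was visually rated against untreated controls from 0 (no effect) to 10 (complete control).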

[2] = tested on: blackgrass; test: Test B pre/postemergence blackgrass; format: in vivo, Alopecurus myosuroides
Summary of the method: as §1

[3] = tested on: surinam grass; test: Test B pre/postemergence surinam grass; format: in vivo, Brachiaria decumbens
Summary of the method: as §1

[4] = tested on: cocklebur; test: Test B pre/postemergence cocklebur; format: in vivo, Xanthium strumarium; conditions: for Cocklebur plant response rating: scale of 0 to 10 where 0 is no effect and 10 is complete control
Summary of the method: as §1

[5] = tested on: corn; test: Test B pre/postemergence corn; format: in vivo, Zea mays; conditions: for Corn plant response rating: scale of 0 to 10 where 0 is no effect and 10 is complete control
Summary of the method: as §1

[6] = tested on: crabgrass; test: Test B pre/postemergence crabgrass; format: in vivo, Digitaria sanguinalis; conditions: for Crabgrass plant response rating: scale of 0 to 10 where 0 is no effect and 10 is complete control
Summary of the method: as §1

[7] = tested on: giant foxtail; test: Test B pre/postemergence giant foxtail; format: in vivo, Setaria faberii; conditions: for Giant foxtail plant response rating: scale of 0 to 10 where 0 is no effect and 10 is complete control
Summary of the method: as §1

[8] = tested on: morningglory; test: Test B pre/postemergence morningglory; format: in vivo, Ipomoea hederacea; conditions: for Morningglory plant response rating: scale of 0 to 10 where 0 is no effect and 10 is complete control
Summary of the method: as §1

[9] = tested on: pigweed; test: Test B pre/postemergence pigweed; format: in vivo, Amaranthus retroflexus; conditions: for Redroot pigweed plant response rating: scale of 0 to 10 where 0 is no effect and 10 is complete control
Summary of the method: as §1

[10] = tested on: rape; test: Test B pre/postemergence rape; format: in vivo, Brassica napus; conditions: for Rape plant response rating: scale of 0 to 10 where 0 is no effect and 10 is complete control
Summary of the method: as §1

[11] = tested on: soybean; test: Test B pre/postemergence soybean; format: in vivo, Glycine max; conditions: for Soybean plant response rating: scale of 0 to 10 where 0 is no effect and 10 is complete control
Summary of the method: as §1

[12] = tested on: sugar beet; test: Test B pre/postemergence sugar beet; format: in vivo, Beta vulgaris; conditions: for Sugarbeets plant response rating: scale of 0 to 10 where 0 is no effect and 10 is complete control
Summary of the method: as §1

[13] = tested on: velvetleaf; test: Test B pre/postemergence velvetleaf; format: in vivo, Abutilon theophrasti; conditions: for Velvetleaf plant response rating: scale of 0 to 10 where 0 is no effect and 10 is complete control
Summary of the method: as §1

[14] = tested on: wheat; test: Test B pre/postemergence wheat; format: in vivo, Triticum aestivum; conditions: for Wheat plant response rating: scale of 0 to 10 where 0 is no effect and 10 is complete control
Summary of the method: as §1

[15] = tested on: wild oat; test: Test B pre/postemergence wild oat; format: in vivo, Avena fatua; conditions: for Wild oats plant response rating: scale of 0 to 10 where 0 is no effect and 10 is complete control
Summary of the method: as §1

[16] = tested on: purple nutsedge; test: Test B pre/postemergence purple nutsedge; format: in vivo, Cyperus rotundus; conditions: for Nutsedge plant response rating: scale of 0 to 10 where 0 is no effect and 10 is complete control
Summary of the method: as §1

[17] = tested on: rice; test: Test B flood test rice; format: in vivo, Oryza sativa
Summary of the method: (§2)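 Flood test on plants grown to the 2-leaf stage; treated plants kept in greenhouse twelve to sixteen days, then visually rated against controls on a 0 (no effect) to 10 (complete control) scale.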

[18] = tested on: smallflower flatsedge; test: Test B flood test smallflower flatsedge; format: in vivo, Cyperus difformis
Summary of the method: as §2

[19] = tested on: duck salad; test: Test B flood test duck salad; format: in vivo, Heteranthera limosa
Summary of the method: as §2

[20] = tested on: bamyardgrass; test: Test B flood test barnyardgrass; format: in vivo, Echinochloa crus-galli
Summary of the method: as §2

[21] = Postemergence, Rate 125 g/ha, scale 0 to 10, 0 is no effect, 10 is complete control
[22] = Preemergence, Rate 62 g/ha, scale 0 to 10 (0 no effect, 10 complete control)
[23] = Rate 62 g/ha, Postemergence, scale of 0 to 10 where 0 is no effect and 10 is complete control
[24] = Rate 250 g/ha, Postemergence, scale of 0 to 10 where 0 is no effect and 10 is complete control
[25] = Rate 500 g/ha, Postemergence, scale 0 to 10, 0 no effect, 10 complete control
[26] = Preemergence, Rate 250 g/ha, scale of 0 to 10 where 0 is no effect and 10 is complete control
[27] = Preemergence, Rate 500 g/ha, scale of 0 to 10 where 0 is no effect and 10 is complete control
[28] = Postemergence (flood test), Rate 125 g/ha, scale 0 to 10, 0 is no effect, 10 is complete control
[29] = Rate 62 g/ha, Postemergence (flood test species), scale of 0 to 10 where 0 is no effect and 10 is complete control
[30] = Rate 500 g/ha, listed under Postemergence (flood test species), scale 0 to 10, 0 no effect, 10 complete control

Structure (SMILES): Cc1c(-n2c(=O)on(C(=O)N(c3ccccc3)C(C)C)c2=O)ccc2ccccc12 [Compound 344]
- Plant response rating, Bedstraw [1, 21]: 0
- Plant response rating, Bedstraw [1, 22]: 0
- Bedstraw plant response rating (0 to 10 scale) ([1]; Preemergence, Rate 125 g/ha): 0
- Bedstraw plant response rating [1, 23]: 0
- Plant response rating, Bedstraw [1, 24]: 0
- Plant response rating, Bedstraw [1, 25]: 0
- Plant response rating, Blackgrass [2, 21]: 0
- Plant response rating, Blackgrass [2, 22]: 0
- Blackgrass plant response rating (0 to 10 scale) ([2]; Preemergence, Rate 125 g/ha): 0
- Blackgrass plant response rating [2, 26]: 0
- Blackgrass plant response rating [2, 27]: 0
- Blackgrass plant response rating [2, 23]: 0
- Plant response rating, Blackgrass [2, 24]: 0
- Plant response rating, Blackgrass [2, 25]: 0
- Plant response rating, B. signalgrass [3, 21]: 0
- Plant response rating, B. signalgrass [3, 22]: 0
- B. signalgrass plant response rating (0 to 10 scale, 0 is no effect, 10 is complete control) ([3]; Preemergence, Rate 125 g/ha): 0
- B. signalgrass plant response rating [3, 26]: 0
- B. signalgrass plant response rating [3, 27]: 0
- B. signalgrass plant response rating [3, 23]: 0
- Plant response rating, B. signalgrass [3, 24]: 0
- Plant response rating, B. signalgrass [3, 25]: 0
- Plant response rating, Cocklebur [4, 21]: 0
- Plant response rating, Cocklebur [4, 22]: 0
- Cocklebur plant response rating (0 to 10 scale) ([4]; Preemergence, Rate 125 g/ha): 0
- Cocklebur plant response rating ([4]; Preemergence, Rate 250 g/ha): 0
- Cocklebur plant response rating ([4]; Preemergence, Rate 500 g/ha): 0
- Cocklebur plant response rating ([4]; Rate 62 g/ha, Postemergence): 0
- Plant response rating, Cocklebur [4, 25]: 0
- Plant response rating, Corn [5, 21]: 0
- Plant response rating, Corn [5, 22]: 0
- Corn plant response rating (0 to 10 scale) ([5]; Preemergence, Rate 125 g/ha): 0
- Corn plant response rating ([5]; Preemergence, Rate 250 g/ha): 0
- Corn plant response rating ([5]; Preemergence, Rate 500 g/ha): 0
- Corn plant response rating ([5]; Rate 62 g/ha, Postemergence): 0
- Plant response rating, Corn [5, 25]: 0
- Plant response rating, Crabgrass [6, 21]: 0
- Plant response rating, Crabgrass [6, 22]: 0
- Crabgrass plant response rating (0 to 10 scale) ([6]; Preemergence, Rate 125 g/ha): 0
- Crabgrass plant response rating ([6]; Preemergence, Rate 250 g/ha): 0
- Crabgrass plant response rating ([6]; Preemergence, Rate 500 g/ha): 1
- Crabgrass plant response rating ([6]; Rate 62 g/ha, Postemergence): 0
- Plant response rating, Crabgrass [6, 25]: 0
- Plant response rating, Giant foxtail [7, 21]: 0
- Plant response rating, Giant foxtail [7, 22]: 0
- Giant foxtail plant response rating (0 to 10 scale) ([7]; Preemergence, Rate 125 g/ha): 2
- Giant foxtail plant response rating ([7]; Preemergence, Rate 250 g/ha): 3
- Giant foxtail plant response rating ([7]; Preemergence, Rate 500 g/ha): 8
- Giant foxtail plant response rating ([7]; Rate 62 g/ha, Postemergence): 0
- Plant response rating, Giant foxtail [7, 25]: 0
- Plant response rating, Morningglory [8, 21]: 0
- Plant response rating, Morningglory [8, 22]: 0
- Morningglory plant response rating (0 to 10 scale) ([8]; Preemergence, Rate 125 g/ha): 0
- Morningglory plant response rating ([8]; Preemergence, Rate 250 g/ha): 0
- Morningglory plant response rating ([8]; Preemergence, Rate 500 g/ha): 0
- Morningglory plant response rating ([8]; Rate 62 g/ha, Postemergence): 0
- Plant response rating, Morningglory [8, 25]: 0
- Plant response rating, Redroot pigweed [9, 21]: 0
- Plant response rating, Redroot pigweed [9, 22]: 0
- Redroot pigweed plant response rating (0 to 10 scale) ([9]; Preemergence, Rate 125 g/ha): 0
- Redroot pigweed plant response rating ([9]; Preemergence, Rate 250 g/ha): 0
- Redroot pigweed plant response rating ([9]; Preemergence, Rate 500 g/ha): 0
- Redroot pigweed plant response rating ([9]; Rate 62 g/ha, Postemergence): 0
- Plant response rating, Redroot pigweed [9, 25]: 2
- Plant response rating, Rape [10, 21]: 0
- Plant response rating, Rape [10, 22]: 0
- Rape plant response rating (0 to 10 scale) ([10]; Preemergence, Rate 125 g/ha): 0
- Rape plant response rating ([10]; Preemergence, Rate 250 g/ha): 0
- Rape plant response rating ([10]; Rate 62 g/ha, Postemergence): 0
- Plant response rating, Rape [10, 25]: 0
- Plant response rating, Soybean [11, 21]: 2
- Plant response rating, Soybean [11, 22]: 0
- Soybean plant response rating (0 to 10 scale) ([11]; Preemergence, Rate 125 g/ha): 0
- Soybean plant response rating ([11]; Preemergence, Rate 250 g/ha): 0
- Soybean plant response rating ([11]; Preemergence, Rate 500 g/ha): 0
- Soybean plant response rating ([11]; Rate 62 g/ha, Postemergence): 2
- Plant response rating, Soybean [11, 25]: 2
- Plant response rating, Sugarbeets [12, 21]: 0
- Plant response rating, Sugarbeets [12, 22]: 0
- Sugarbeets plant response rating (0 to 10 scale) ([12]; Preemergence, Rate 125 g/ha): 0
- Sugarbeets plant response rating ([12]; Preemergence, Rate 250 g/ha): 0
- Sugarbeets plant response rating ([12]; Preemergence, Rate 500 g/ha): 0
- Sugarbeets plant response rating ([12]; Rate 62 g/ha, Postemergence): 0
- Plant response rating, Sugarbeets [12, 25]: 0
- Plant response rating, Velvetleaf [13, 21]: 0
- Plant response rating, Velvetleaf [13, 22]: 0
- Velvetleaf plant response rating (0 to 10 scale) ([13]; Preemergence, Rate 125 g/ha): 0
- Velvetleaf plant response rating ([13]; Preemergence, Rate 250 g/ha): 0
- Velvetleaf plant response rating ([13]; Preemergence, Rate 500 g/ha): 0
- Velvetleaf plant response rating ([13]; Rate 62 g/ha, Postemergence): 0
- Plant response rating, Velvetleaf [13, 25]: 0
- Plant response rating, Wheat [14, 21]: 0
- Plant response rating, Wheat [14, 22]: 0
- Wheat plant response rating (0 to 10 scale) ([14]; Preemergence, Rate 125 g/ha): 0
- Wheat plant response rating ([14]; Preemergence, Rate 250 g/ha): 0
- Wheat plant response rating ([14]; Preemergence, Rate 500 g/ha): 0
- Wheat plant response rating ([14]; Rate 62 g/ha, Postemergence): 0
- Plant response rating, Wheat [14, 25]: 0
- Plant response rating, Wild oats [15, 21]: 0
- Plant response rating, Wild oats [15, 22]: 0
- Wild oats plant response rating (0 to 10 scale) ([15]; Preemergence, Rate 125 g/ha): 0
- Wild oats plant response rating ([15]; Preemergence, Rate 250 g/ha): 0
- Wild oats plant response rating ([15]; Preemergence, Rate 500 g/ha): 0
- Wild oats plant response rating ([15]; Rate 62 g/ha, Postemergence): 0
- Plant response rating, Wild oats [15, 25]: 0
- Plant response rating, Nutsedge [16, 21]: 0
- Plant response rating, Nutsedge [16, 22]: 0
- Nutsedge plant response rating (0 to 10 scale) ([16]; Preemergence, Rate 125 g/ha): 0
- Nutsedge plant response rating ([16]; Preemergence, Rate 250 g/ha): 0
- Nutsedge plant response rating ([16]; Preemergence, Rate 500 g/ha): 0
- Nutsedge plant response rating ([16]; Rate 62 g/ha, Postemergence): 0
- Plant response rating, Nutsedge [16, 25]: 0
- Plant response rating, Rice [17, 28]: 0
- Rice plant response rating [17, 29]: 0
- Plant response rating, Rice [17, 30]: 0
- Plant response rating, S. Flatsedge [18, 28]: 0
- S. Flatsedge plant response rating [18, 29]: 0
- Plant response rating, S. Flatsedge [18, 30]: 0
- Plant response rating, Ducksalad [19, 28]: 0
- Ducksalad plant response rating [19, 29]: 0
- Plant response rating, Ducksalad [19, 30]: 0
- Plant response rating, Barnyardgrass [20, 28]: 0
- Barnyardgrass plant response rating [20, 29]: 0
- Plant response rating, Barnyardgrass ([20]; Rate 250 g/ha, Postemergence (flood test species), scale of 0 to 10 where 0 is no effect and 10 is complete control): 0
- Plant response rating, Barnyardgrass [20, 30]: 0
